Measured values from PubChem BioAssay AID250 (DTP/NCI, 2004).
Toxic doses and inconclusive results are not listed. How the source made its calls: active means survival T/C of 150% or more; inactive means T/C below 125% in these data.

Test system: BDF1 mice, L1210 leukemia sc, survival T/C
Assay: NCI In Vivo Anticancer Drug Screen. Data for tumor model L1210 Leukemia (subcutaneous) in B6D2F1 (BDF1) mice
Conditions: endpoint: median survival time, higher = longer survival
Summary of the method: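 Expressed as T/C: measurement in compound-treated, tumor-bearing mice relative to vehicle-treated control mice, based on survival or tumor size.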

Measured: T/C

NC(=O)c1ccc([N+](=O)[O-])cc1
inactive: dose: 23.0 mg/kg/injection, schedule: Q01DX Z (sc), vehicle: methylcellulose (MC) 90 % of control | dose: 39.0 mg/kg/injection, schedule: Q01DX Z (sc), vehicle: methylcellulose (MC) 100 % of control | dose: 65.0 mg/kg/injection, schedule: Q01DX Z (sc), vehicle: methylcellulose (MC) 90 % of control | dose: 108.0 mg/kg/injection, schedule: Q01DX Z (sc), vehicle: methylcellulose (MC) 90 % of control | dose: 180.0 mg/kg/injection, schedule: Q01DX Z (sc), vehicle: methylcellulose (MC) 90 % of control | dose: 300.0 mg/kg/injection, schedule: Q01DX Z (sc), vehicle: methylcellulose (MC) 100 % of control | dose: 500.0 mg/kg/injection, schedule: Q01DX Z (sc), vehicle: methylcellulose (MC) 100 % of control

N=C(N)SCc1c2ccccc2c(CSC(=N)N)c2ccccc12
inactive: dose: 25.0 mg/kg/injection, schedule: Q01DX009 (ip), vehicle: steriod suspending solution 110 % of control | dose: 50.0 mg/kg/injection, schedule: Q01DX009 (ip), vehicle: steriod suspending solution 110 % of control | dose: 50.0 mg/kg/injection, schedule: Q01DX009 (sc), vehicle: steriod suspending solution 120 % of control | dose: 50.0 mg/kg/injection, schedule: Q04DX003 (ip), vehicle: steriod suspending solution 100 % of control | dose: 62.5 mg/kg/injection, schedule: Q01DX001 (ip), vehicle: steriod suspending solution 100 % of control | dose: 100.0 mg/kg/injection, schedule: Q04DX003 (ip), vehicle: steriod suspending solution 110 % of control | dose: 100.0 mg/kg/injection, schedule: Q04DX003 (sc), vehicle: steriod suspending solution 100 % of control | dose: 125.0 mg/kg/injection, schedule: Q01DX001 (ip), vehicle: steriod suspending solution 110 % of control | dose: 125.0 mg/kg/injection, schedule: Q01DX001 (sc), vehicle: steriod suspending solution 110 % of control | dose: 200.0 mg/kg/injection, schedule: Q01DX009 (sc), vehicle: steriod suspending solution 120 % of control | dose: 200.0 mg/kg/injection, schedule: Q04DX003 (sc), vehicle: steriod suspending solution 105 % of control | dose: 250.0 mg/kg/injection, schedule: Q01DX001 (ip), vehicle: steriod suspending solution 110 % of control | dose: 400.0 mg/kg/injection, schedule: Q01DX009 (sc), vehicle: steriod suspending solution 110 % of control | dose: 400.0 mg/kg/injection, schedule: Q04DX003 (sc), vehicle: steriod suspending solution 110 % of control | dose: 500.0 mg/kg/injection, schedule: Q01DX001 (sc), vehicle: steriod suspending solution 105 % of control | dose: 800.0 mg/kg/injection, schedule: Q01DX009 (sc), vehicle: steriod suspending solution 110 % of control | dose: 800.0 mg/kg/injection, schedule: Q04DX003 (sc), vehicle: steriod suspending solution 100 % of control | dose: 1000.0 mg/kg/injection, schedule: Q01DX001 (sc), vehicle: steriod suspending solution 110 % of control | dose: 2000.0 mg/kg/injection, schedule: Q01DX001 (sc), vehicle: steriod suspending solution 100 % of control

CN(C)c1ccc(/C=C/c2ccc3ccccc3[n+]2C)cc1
inactive: dose: 0.65 mg/kg/injection, schedule: Q01DX Z (sc), vehicle: methylcellulose (MC) 100 % of control | dose: 1.08 mg/kg/injection, schedule: Q01DX Z (sc), vehicle: methylcellulose (MC) 100 % of control | dose: 1.8 mg/kg/injection, schedule: Q01DX Z (sc), vehicle: methylcellulose (MC) 104 % of control | dose: 3.0 mg/kg/injection, schedule: Q01DX Z (sc), vehicle: methylcellulose (MC) 104 % of control | dose: 5.0 mg/kg/injection, schedule: Q01DX Z (sc), vehicle: methylcellulose (MC) 104 % of control
